Data reported in PubChem BioAssay (NCI).
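In this assay, cells in 96-well plates receive the compound at five concentrations for 48 hours. Endpoints are linearly interpolated between the surrounding concentrations. TGI: total growth inhibition.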

Tests used:
Experiment in all cases: inhibition of tumour cell growth, NCI panel, 48 h
SK-MEL-28 melanoma = system: SK-MEL-28 melanoma
SK-MEL-2 melanoma = system: SK-MEL-2 melanoma
NCI-H460 lung = system: NCI-H460 lung
HL-60(TB) leukemia = system: HL-60(TB) leukemia
OVCAR-8 ovarian = system: OVCAR-8 ovarian
RPMI-8226 leukemia = system: RPMI-8226 leukemia
HCT-116 colon = system: HCT-116 colon
ACHN renal = system: ACHN renal
K-562 leukemia = system: K-562 leukemia
TK-10 renal = system: TK-10 renal
DU-145 prostate = system: DU-145 prostate
BT-549 breast = system: BT-549 breast
SF-268 CNS = system: SF-268 CNS
UO-31 renal = system: UO-31 renal
UACC-62 melanoma = system: UACC-62 melanoma
OVCAR-5 ovarian = system: OVCAR-5 ovarian
LOX IMVI melanoma = system: LOX IMVI melanoma
MDA-N = system: MDA-N
HCT-15 colon = system: HCT-15 colon
HCC-2998 colon = system: HCC-2998 colon
HS 578T breast = system: HS 578T breast
IGROV1 ovarian = system: IGROV1 ovarian
NCI-H23 lung = system: NCI-H23 lung
A549 NSCLC = system: A549 NSCLC
CCRF-CEM leukemia = system: CCRF-CEM leukemia
SN12C renal = system: SN12C renal
M14 melanoma = system: M14 melanoma
COLO 205 colon = system: COLO 205 colon
MOLT-4 leukemia = system: MOLT-4 leukemia
OVCAR-4 ovarian = system: OVCAR-4 ovarian
EKVX NSCLC = system: EKVX NSCLC
NCI-H522 lung = system: NCI-H522 lung
PC-3 prostate = system: PC-3 prostate
T-47D breast = system: T-47D breast
CAKI-1 renal = system: CAKI-1 renal
SR leukemia = system: SR leukemia
SK-MEL-5 melanoma = system: SK-MEL-5 melanoma
MDA-MB-435 = system: MDA-MB-435
U251 CNS = system: U251 CNS
MCF7 breast = system: MCF7 breast
NCI-H226 lung = system: NCI-H226 lung
SNB-75 CNS = system: SNB-75 CNS
SW-620 colon = system: SW-620 colon
NCI/ADR-RES ovarian = system: NCI/ADR-RES ovarian
A498 renal = system: A498 renal
KM12 colon = system: KM12 colon
SF-295 CNS = system: SF-295 CNS
HOP-92 NSCLC = system: HOP-92 NSCLC
SF-539 CNS = system: SF-539 CNS
SNB-19 CNS = system: SNB-19 CNS
HT29 colon = system: HT29 colon
UACC-257 melanoma = system: UACC-257 melanoma
OVCAR-3 ovarian = system: OVCAR-3 ovarian
SK-OV-3 ovarian = system: SK-OV-3 ovarian
MDA-MB-231 breast = system: MDA-MB-231 breast
MALME-3M melanoma = system: MALME-3M melanoma
HOP-62 NSCLC = system: HOP-62 NSCLC
786-0 renal = system: 786-0 renal
RXF 393 renal = system: RXF 393 renal
DMS 273 small cell lung = system: DMS 273 small cell lung
M19-MEL melanoma = system: M19-MEL melanoma
LXFL 529 NSCLC = system: LXFL 529 NSCLC
DLD-1 colon = system: DLD-1 colon
DMS 114 small cell lung = system: DMS 114 small cell lung
KM20L2 colon = system: KM20L2 colon
XF 498 CNS = system: XF 498 CNS

NS(=O)(=O)c1ccc(NC(=O)c2ccc3nc4ccccc4c(Nc4ccc(S(N)(=O)=O)cc4)c3c2)cc1
TGI (SK-MEL-28 melanoma): > 100 µM
TGI (SK-MEL-2 melanoma): > 100 µM
TGI (NCI-H460 lung): > 100 µM
TGI (HL-60(TB) leukemia): > 100 µM
TGI (OVCAR-8 ovarian): > 100 µM
TGI (RPMI-8226 leukemia): > 100 µM
TGI (HCT-116 colon): > 100 µM
TGI (ACHN renal): > 100 µM
TGI (K-562 leukemia): > 100 µM
TGI (TK-10 renal): > 100 µM
TGI (DU-145 prostate): > 100 µM
TGI (BT-549 breast): > 100 µM
TGI (SF-268 CNS): > 100 µM
TGI (UO-31 renal): > 100 µM
TGI (UACC-62 melanoma): > 100 µM
TGI (OVCAR-5 ovarian): > 100 µM
TGI (LOX IMVI melanoma): > 100 µM
TGI (MDA-N): > 100 µM
TGI (HCT-15 colon): > 100 µM
TGI (HCC-2998 colon): > 100 µM
TGI (HS 578T breast): > 100 µM
TGI (IGROV1 ovarian): > 100 µM
TGI (NCI-H23 lung): > 100 µM
TGI (A549 NSCLC): > 100 µM
TGI (CCRF-CEM leukemia): > 100 µM
TGI (SN12C renal): > 100 µM
TGI (M14 melanoma): > 100 µM
TGI (COLO 205 colon): > 100 µM
TGI (MOLT-4 leukemia): > 100 µM
TGI (OVCAR-4 ovarian): > 100 µM
TGI (EKVX NSCLC): > 100 µM
TGI (NCI-H522 lung): > 100 µM
TGI (PC-3 prostate): > 100 µM
TGI (T-47D breast): > 100 µM
TGI (CAKI-1 renal): > 100 µM
TGI (SR leukemia): > 100 µM
TGI (SK-MEL-5 melanoma): > 100 µM
TGI (MDA-MB-435): > 100 µM
TGI (U251 CNS): > 100 µM
TGI (MCF7 breast): > 100 µM
TGI (NCI-H226 lung): > 100 µM
TGI (SNB-75 CNS): > 100 µM
TGI (SW-620 colon): > 100 µM
TGI (NCI/ADR-RES ovarian): > 100 µM
TGI (A498 renal): > 100 µM
TGI (KM12 colon): > 100 µM
TGI (SF-295 CNS): > 100 µM
TGI (HOP-92 NSCLC): > 100 µM
TGI (SF-539 CNS): > 100 µM
TGI (SNB-19 CNS): > 100 µM
TGI (HT29 colon): > 100 µM
TGI (UACC-257 melanoma): > 100 µM
TGI (OVCAR-3 ovarian): > 100 µM
TGI (SK-OV-3 ovarian): > 100 µM
TGI (MDA-MB-231 breast): > 100 µM
TGI (MALME-3M melanoma): > 100 µM
TGI (HOP-62 NSCLC): > 100 µM
TGI (786-0 renal): > 100 µM
TGI (RXF 393 renal): > 100 µM

COC(=O)C1=CCC2c3[nH]c4ccccc4c3CCN2C1 (stereo not given)
TGI (SK-MEL-28 melanoma): > 354 µM
TGI (SK-MEL-2 melanoma): > 354 µM
TGI (NCI-H460 lung): > 354 µM
TGI (HL-60(TB) leukemia): > 354 µM
TGI (OVCAR-8 ovarian): > 354 µM
TGI (DMS 273 small cell lung): > 354 µM
TGI (RPMI-8226 leukemia): > 354 µM
TGI (HCT-116 colon): > 354 µM
TGI (ACHN renal): > 354 µM
TGI (K-562 leukemia): > 354 µM
TGI (TK-10 renal): > 354 µM
TGI (SF-268 CNS): > 354 µM
TGI (UACC-62 melanoma): > 354 µM
TGI (LOX IMVI melanoma): > 354 µM
TGI (HCT-15 colon): > 354 µM
TGI (HCC-2998 colon): > 354 µM
TGI (IGROV1 ovarian): > 354 µM
TGI (NCI-H23 lung): > 354 µM
TGI (A549 NSCLC): > 354 µM
TGI (M19-MEL melanoma): > 354 µM
TGI (CCRF-CEM leukemia): > 354 µM
TGI (SN12C renal): > 354 µM
TGI (COLO 205 colon): > 354 µM
TGI (MOLT-4 leukemia): > 354 µM
TGI (LXFL 529 NSCLC): > 354 µM
TGI (EKVX NSCLC): > 354 µM
TGI (NCI-H522 lung): > 354 µM
TGI (CAKI-1 renal): > 354 µM
TGI (SR leukemia): > 354 µM
TGI (DLD-1 colon): > 354 µM
TGI (SK-MEL-5 melanoma): > 354 µM
TGI (U251 CNS): > 354 µM
TGI (NCI-H226 lung): > 354 µM
TGI (SW-620 colon): > 354 µM
TGI (KM12 colon): > 354 µM
TGI (SF-295 CNS): > 354 µM
TGI (HOP-92 NSCLC): > 354 µM
TGI (SF-539 CNS): > 354 µM
TGI (SNB-19 CNS): > 354 µM
TGI (DMS 114 small cell lung): > 354 µM
TGI (HT29 colon): > 354 µM
TGI (UACC-257 melanoma): > 354 µM
TGI (OVCAR-3 ovarian): > 354 µM
TGI (SK-OV-3 ovarian): > 354 µM
TGI (KM20L2 colon): > 354 µM
TGI (MALME-3M melanoma): > 354 µM
TGI (HOP-62 NSCLC): > 354 µM
TGI (786-0 renal): > 354 µM
TGI (RXF 393 renal): > 354 µM

O=c1n(CC2CS2)c2ccccc2n1CC1CS1 (stereo not given)
TGI (SK-MEL-2 melanoma): > 100 µM
TGI (HL-60(TB) leukemia): > 100 µM
TGI (DMS 273 small cell lung): > 100 µM
TGI (RPMI-8226 leukemia): 88.6 µM
TGI (HCT-116 colon): 70.1 µM
TGI (ACHN renal): > 100 µM
TGI (K-562 leukemia): > 100 µM
TGI (SF-268 CNS): > 100 µM
TGI (UACC-62 melanoma): > 100 µM
TGI (LOX IMVI melanoma): > 100 µM
TGI (HCT-15 colon): > 100 µM
TGI (HCC-2998 colon): > 100 µM
TGI (IGROV1 ovarian): > 100 µM
TGI (M19-MEL melanoma): > 100 µM
TGI (CCRF-CEM leukemia): 79.7 µM
TGI (SN12C renal): > 100 µM
TGI (M14 melanoma): > 100 µM
TGI (COLO 205 colon): > 100 µM
TGI (MOLT-4 leukemia): 69.1 µM
TGI (LXFL 529 NSCLC): > 100 µM
TGI (OVCAR-4 ovarian): > 100 µM
TGI (EKVX NSCLC): > 100 µM
TGI (NCI-H522 lung): > 100 µM
TGI (CAKI-1 renal): > 100 µM
TGI (SR leukemia): > 100 µM
TGI (SNB-75 CNS): > 100 µM
TGI (KM12 colon): > 100 µM
TGI (HOP-92 NSCLC): > 100 µM
TGI (DMS 114 small cell lung): > 100 µM
TGI (OVCAR-3 ovarian): > 100 µM
TGI (SK-OV-3 ovarian): > 100 µM
TGI (MALME-3M melanoma): 74.4 µM
TGI (HOP-62 NSCLC): > 100 µM
TGI (XF 498 CNS): > 100 µM

Cn1c(=O)n(C2(C)CSC2)c2ccccc21
TGI (SK-MEL-28 melanoma): > 100 µM
TGI (NCI-H460 lung): > 100 µM
TGI (HL-60(TB) leukemia): > 100 µM
TGI (OVCAR-8 ovarian): > 100 µM
TGI (DMS 273 small cell lung): > 100 µM
TGI (RPMI-8226 leukemia): > 100 µM
TGI (HCT-116 colon): > 100 µM
TGI (ACHN renal): > 100 µM
TGI (K-562 leukemia): > 100 µM
TGI (TK-10 renal): > 100 µM
TGI (SF-268 CNS): > 100 µM
TGI (UO-31 renal): > 100 µM
TGI (UACC-62 melanoma): > 100 µM
TGI (OVCAR-5 ovarian): > 100 µM
TGI (LOX IMVI melanoma): > 100 µM
TGI (HCT-15 colon): > 100 µM
TGI (HCC-2998 colon): > 100 µM
TGI (IGROV1 ovarian): > 100 µM
TGI (NCI-H23 lung): > 100 µM
TGI (A549 NSCLC): > 100 µM
TGI (M19-MEL melanoma): > 100 µM
TGI (CCRF-CEM leukemia): > 100 µM
TGI (SN12C renal): > 100 µM
TGI (M14 melanoma): > 100 µM
TGI (COLO 205 colon): > 100 µM
TGI (MOLT-4 leukemia): > 100 µM
TGI (LXFL 529 NSCLC): > 100 µM
TGI (OVCAR-4 ovarian): > 100 µM
TGI (EKVX NSCLC): > 100 µM
TGI (NCI-H522 lung): > 100 µM
TGI (CAKI-1 renal): > 100 µM
TGI (SR leukemia): > 100 µM
TGI (DLD-1 colon): > 100 µM
TGI (SK-MEL-5 melanoma): > 100 µM
TGI (U251 CNS): > 100 µM
TGI (NCI-H226 lung): > 100 µM
TGI (SNB-75 CNS): > 100 µM
TGI (SW-620 colon): > 100 µM
TGI (A498 renal): > 100 µM
TGI (KM12 colon): > 100 µM
TGI (SF-295 CNS): > 100 µM
TGI (HOP-92 NSCLC): > 100 µM
TGI (SF-539 CNS): > 100 µM
TGI (SNB-19 CNS): > 100 µM
TGI (DMS 114 small cell lung): > 100 µM
TGI (HT29 colon): > 100 µM
TGI (UACC-257 melanoma): > 100 µM
TGI (SK-OV-3 ovarian): > 100 µM
TGI (KM20L2 colon): > 100 µM
TGI (HOP-62 NSCLC): > 100 µM
TGI (786-0 renal): > 100 µM
TGI (XF 498 CNS): > 100 µM
TGI (RXF 393 renal): > 100 µM
